Source: patent US20250136722A1, “CYTOTOXICITY TARGETING CHIMERAS” (GLAXOSMITHKLINE INTELLECTUAL PROPERTY DEVELOPMENT LIMITED, priority 2021, published 2025)
“And” between values parts separate entries of the source, which are not always exact repeats. Identical values can stand only once.

Key:
[1] = tested on: endogenous target monocytes in human PBMC; assay: PBMC ex vivo monocyte depletion flow cytometry assay (Example 200); format: cell-based; conditions: with anti-cotinine antibody SEQ ID NO: 11/12, 18-24 hours, read-out: Ex Vivo Depletion Assay pEC50 (converted)
Protocol: A human PBMC (peripheral blood mononuclear cells) monocyte depletion flow cytometry assay was developed to screen compounds in a 384-well plate format. This assay incorporated endogenous natural killer cells to deplete endogenous target monocytes.
To screen compounds in the human PBMC monocyte depletion flow cytometry assay, 11-point dose-response curves were made from 1 mM stocks in neat DMSO by serially diluting an ARM compound of Formula (I) four-fold into a 384-well plate row-wise. These serially diluted compounds were then stamped into a flat bottom polypropylene 384-well plate (Greiner Bio-One) at 100 nL/well. Fifty microliters of 30 μg/mL anti-cotinine antibody having a heavy chain sequence of SEQ ID NO: 11 and a light chain sequence of SEQ ID NO: 12 (rabbit variable region with human IgG1 Fc domain containing a DE mutation (S239D/1332E)) that had been diluted in assay medium (RPMI 1640 (Gibco) containing 10% fetal bovine serum (Gibco), 1% Glutamax (Gibco) and 1% sodium pyruvate (Corning) was added to the wells of the plate. The plate was centrifuged for 1 min at 500 rpm (revolutions per minute) and then shaken for 5 min at room temperature. The plate was incubated for 15 minutes at 37° C./5% CO2.
Frozen PBMC cells (HemaCare BioResearch) were thawed and centrifuged at 1,200 rpm for 4 minutes. The cells were diluted to a cell density of 2×10^6 cells/mL in assay medium. Fifty microliters of the diluted cells were added to the wells of the plate. The plate was centrifuged for 1 min at 500 rpm and incubated for 18-24 hours at 37° C./5% CO2.
After 18-24 hours incubation, 2 μL of 6.25 μg human FC block (BD Pharmingen) that was diluted in assay medium was added to the wells of the plate. The plate was centrifuged for 1 minute at 500 rpm and then incubated at room temperature for 15 minutes. Five microliters of 750 nM Helix NP NIR (Biolegend) that had been diluted in assay medium was added to the wells of the plate. Nine microliters of antibody cocktail containing 1/5 diluted fluorescein isothiocyanate (FITC) labeled anti-CD45 antibody (Beckman Coulter), PC7 labeled anti-CD14 antibody (Beckman Coulter) and phycoerythrin (PE) anti-CD4 antibody (Beckman Coulter) was then added to the wells of the plate. The plate was centrifuged for 1 min at 500 rpm and incubated for 30 minutes at 4-8° C. Samples from the plate were run on BD FACS Canto II flow cytometer and data was analyzed using FlowJo software.
ARMs compounds of Formula (I) of the invention were tested for the ability to deplete monocytes in the above assay in one or more experimental runs and the results are shown in Table 3 below. Potency of the compounds of the invention is reported as a pEC50 value. The pEC50 value is the negative log of the EC50 value, wherein the EC50 value is the half maximal effective concentration measured in molar (M). For compounds tested in more than one experimental run, the pEC50 value is reported as an average or as the individual values measured

[2] = target: Anti-cotinine antibody (SEQ ID NO: 11 / SEQ ID NO: 12, rabbit variable region with human IgG1 Fc domain); assay: Binding of anti-cotinine antibody to ARM compounds by SPR, Biacore T200, 37° C. (Example 202); conditions: pH 7.4, rabbit variable region/human IgG1 Fc antibody captured on protein A
How it was run: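 Antibody captured on protein A chip. Compounds injected (3-fold, 5-point, top 200 nM) at 100 μL/min with 200 s association and 2000 s dissociation, at 37° C. in HEPES pH 7.4 buffer with 1% DMSO. Double-referenced data fit to 1:1 kinetics. Kd = koff/kon, reported as pKd, averaged over runs.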

[3] = target: T1, CHOK1 cells engineered to overexpress human CCR2 (Homo sapiens, UniProt P41597); assay: Antibody dependent cellular cytotoxicity (ADCC) reporter assay (Example 199); format: cell-based; conditions: with anti-cotinine antibody SEQ ID NO: 11/12, CHOK1-human CCR2 target cells, Jurkat FcγRIIIa NFAT-luciferase reporter cells, 12-18 hours
T1 construct: expressed in transfected cells; host or cells: CHOK1 cells
How it was run: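 CHOK1-hCCR2 target cells are co-incubated for 12–18 h with Jurkat FcγRIIIa/NFAT-luciferase reporter cells, ARM compound (1 pM–10 μM) and anti-cotinine antibody with a DE-mutant human IgG1 Fc (0.01–200 μg/mL). Luminescence is expressed as signal:background against no-compound wells; EC50 comes from nonlinear fit and is reported as pEC50, averaged across runs.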

[4] = target: human alpha1 nicotinic acetylcholine (nACh) receptor (Homo sapiens, UniProt P02708+Q07001); assay: Nicotinic acetylcholine receptor antagonism assay, IONFlux automated patch clamp (Example 203); format: cell-based; conditions: for Emax at 10 µM: maximum percentage antagonism at maximum concentration tested 10 μM, read-out: Maximum Response (%); for IC50: nAChR antagonism, ACh stimulated, patch clamp
human alpha1 nicotinic acetylcholine (nACh) receptor, sequence (P02708 21-457): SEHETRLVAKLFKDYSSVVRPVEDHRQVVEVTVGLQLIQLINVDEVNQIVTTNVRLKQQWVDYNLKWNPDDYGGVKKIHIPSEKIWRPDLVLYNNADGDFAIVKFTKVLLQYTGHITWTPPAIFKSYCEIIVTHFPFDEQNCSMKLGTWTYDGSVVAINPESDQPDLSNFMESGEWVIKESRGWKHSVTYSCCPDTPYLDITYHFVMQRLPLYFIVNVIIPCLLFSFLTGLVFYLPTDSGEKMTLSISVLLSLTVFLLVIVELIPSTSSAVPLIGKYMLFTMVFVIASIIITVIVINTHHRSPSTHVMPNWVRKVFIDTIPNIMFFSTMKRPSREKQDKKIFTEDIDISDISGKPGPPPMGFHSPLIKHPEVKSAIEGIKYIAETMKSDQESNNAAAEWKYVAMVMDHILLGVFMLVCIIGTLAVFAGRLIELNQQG
human alpha1 nicotinic acetylcholine (nACh) receptor, sequence (P11230 24-501 partner): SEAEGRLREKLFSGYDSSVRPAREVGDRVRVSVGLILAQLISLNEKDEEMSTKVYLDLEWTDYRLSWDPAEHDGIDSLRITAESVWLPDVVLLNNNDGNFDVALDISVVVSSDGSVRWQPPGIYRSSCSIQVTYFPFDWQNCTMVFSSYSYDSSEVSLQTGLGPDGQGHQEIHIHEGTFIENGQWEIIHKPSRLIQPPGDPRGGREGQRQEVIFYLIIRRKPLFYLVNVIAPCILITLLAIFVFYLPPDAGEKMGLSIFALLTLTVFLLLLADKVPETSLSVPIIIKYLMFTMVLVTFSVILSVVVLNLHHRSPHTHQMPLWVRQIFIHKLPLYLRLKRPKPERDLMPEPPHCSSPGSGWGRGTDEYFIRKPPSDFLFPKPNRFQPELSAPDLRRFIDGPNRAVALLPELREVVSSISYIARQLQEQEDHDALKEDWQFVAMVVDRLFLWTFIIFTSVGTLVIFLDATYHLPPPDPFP
human alpha1 nicotinic acetylcholine (nACh) receptor, sequence (Q07001 22-517): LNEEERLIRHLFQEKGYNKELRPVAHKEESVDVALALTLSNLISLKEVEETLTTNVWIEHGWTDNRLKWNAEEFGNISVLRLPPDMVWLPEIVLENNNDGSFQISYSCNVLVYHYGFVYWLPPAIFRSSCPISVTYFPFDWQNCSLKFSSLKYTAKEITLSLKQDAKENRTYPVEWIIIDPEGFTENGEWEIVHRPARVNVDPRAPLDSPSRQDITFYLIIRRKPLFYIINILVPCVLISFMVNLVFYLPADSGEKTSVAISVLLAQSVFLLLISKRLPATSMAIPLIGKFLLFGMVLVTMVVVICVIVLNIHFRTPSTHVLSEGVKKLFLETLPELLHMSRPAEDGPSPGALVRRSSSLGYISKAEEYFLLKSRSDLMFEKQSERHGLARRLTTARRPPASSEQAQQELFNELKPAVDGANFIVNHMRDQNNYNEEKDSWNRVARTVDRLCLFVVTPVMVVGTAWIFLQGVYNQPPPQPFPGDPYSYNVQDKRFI
How it was run: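 Human α1 nAChR-expressing cells were preincubated with compound (top 10 μM or 100 μM), then stimulated with 10 mM ACh; peak currents were recorded by IONFlux automated patch clamp. Percent inhibition versus ACh-alone control was vehicle- and rundown-corrected, then fitted to give IC50, with maximal antagonism at the top concentration; recordings with control current <500 pA were excluded.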

[5] = tested on: CCR2 expressing cells (CD11b+Ly6c+ Hi) in peripheral blood; assay: In vivo depletion assay, flow cytometry of peripheral blood (Example 201); design: species or system Human CCR2 (hCCR2) knock-in mice (C57 background); conditions: hCCR2 knock-in mice; IV 0.1 mpk compound + 10 mpk anti-cotinine antibody (SEQ ID NO: 13/14); peripheral blood at 48 hr
Protocol: Stock solution preparation: Stock solutions of compounds of Formula (I) were prepared at 20 mg/mL and 100 mg/mL in DMSO for PK/PD and dose tolerability studies respectively. Stock solutions were stored at −20° C. until further usage.
Formulations preparation: On the day of experiment, the stock solution of the compound of Formula (I) was removed from storage at −20° C. and thawed at room temperature. Anti-cotinine antibody having a heavy chain sequence of SEQ ID NO: 13 and a light chain sequence of SEQ ID NO: 14 (rabbit variable region sequence with mouse IgG2a Fc domain), if required was removed from storage at −80° C. and thawed at room temperature. Antibody vials were immediately transferred into wet ice after thawing. Compounds of Formula (I) were further diluted in DMSO as per experimental requirements.
Formulation composition: The formulation composition was Saline:DMSO:PBS. Saline was added based on the quantity required and then stock solution of the compound of Formula (I) prepared in DMSO, followed by addition of antibody in PBS. Formulations were incubated at room temperature for 30 minutes before administration to the mouse. DMSO was used at 1 to 2% (v/v) in the final formulation.
After bleeding, each mouse was sacrificed by cervical dislocation.
CCR2 depletion in peripheral blood was determined by flow cytometry. Briefly, peripheral blood was collected from all animals at the end of study termination and processed. Blood samples were lysed using 1× RBC Lysis buffer and the resulting cell pellet was washed twice in FACS buffer (HBSS containing 5% FBS). Cells were subjected to Fc blocking using mouse Fc block from Biolegend (Trustain, anti-mouse CD16/32, Cat: 101319) to block non-specific binding followed by surface staining for immune markers (CD45, CD3, CD11b, Ly6C, human CCR2). Surface staining was done for 30 minutes in ice and cells were washed twice to remove unbound antibodies. Cells were stained with 7AAD to determine viability and acquired on BD FACSVerse flow cytometer. Appropriate FMO controls and single-color controls were included in the experiment for gating and compensation respectively.
Percent depletion of CD11b+Ly6c+ Hi cells and CCR2 expression for the different treatment groups was determined.

Compound	EC50 [1] [nM]	pKd of Antibody for ARM Compound of Formula (I) [2]	% Depletion of CCR2 expressing cells [5] [%]	other results
CN1C(=O)C[C@H](C(=O)NCCCOCCCNC(=O)CCCC(=O)NC2CCC(C(=O)N[C@@H]3C[C@H](NC(C)(C)C)CC[C@@H]3N3CC[C@H](Nc4ncnc5ccc(C(F)(F)F)cc45)C3=O)CC2)[C@H]1c1cccnc1 (some centres unmarked) [Example 22]	0.631	9.2495	–	ADCC Reporter Assay pEC50 [3]: 9 and 9.3
CC(C)N(C)[C@@H]1CCC(N2CC[C@H](Nc3ncnc4ccc(C(F)(F)F)cc34)C2=O)[C@H](NC(=O)CCOCCOCCOCCOCCNC(=O)[C@H]2CC(=O)N(C)[C@@H]2c2cccnc2)C1 (some centres unmarked) [Example 39]	2510	–	–	–
CC(C)N(C)[C@@H]1CCC(N2CC[C@H](Nc3ncnc4ccc(C(F)(F)F)cc34)C2=O)[C@H](NC(=O)CCOCCOCCOCCOCCOCCNC(=O)[C@H]2CC(=O)N(C)[C@@H]2c2cccnc2)C1 (some centres unmarked) [Example 40]	5.01	9.4525	–	Emax at 10 µM [4]: 24.7%; IC50 [4]: > 10 µM
CC(C)N(C)[C@@H]1CCC(N2CC[C@H](Nc3ncnc4ccc(C(F)(F)F)cc34)C2=O)[C@H](NC(=O)CCOCCOCCOCCOCCOCCOCCNC(=O)[C@H]2CC(=O)N(C)[C@@H]2c2cccnc2)C1 (some centres unmarked) [Example 41]	2.51	9.3615	–	Emax at 10 µM [4]: 20.1%; IC50 [4]: > 10 µM
CC(C)N(C)C1CCC(N2CC[C@H](Nc3ncnc4ccc(C(F)(F)F)cc34)C2=O)[C@H](N[C@H]2CC[C@@H](C(=O)NCCOCCOCCOCCOCCNC(=O)[C@H]3CC(=O)N(C)[C@@H]3c3cccnc3)CC2)C1 (some centres unmarked) [Example 67]	3.98	–	–	–
CC(C)N(C)[C@@H]1CC[C@H](N2CC[C@H](Nc3ncnc4ccc(C(F)(F)F)cc34)C2=O)[C@H](NC2CCN(C(=O)CCOCCOCCOCCOCCNC(=O)[C@H]3CC(=O)N(C)[C@@H]3c3cccnc3)CC2)C1 [Example 69]	1.58	9.321	98.59	–
CC(C)N(C)[C@@H]1CC[C@H](N2CC[C@H](Nc3ncnc4ccc(C(F)(F)F)cc34)C2=O)[C@H](NC(=O)[C@H]2CC[C@H](N3CCN(S(=O)(=O)C4CCN(C(=O)[C@H](C)NC(=O)[C@H]5CC(=O)N(C)[C@@H]5c5cccnc5)CC4)CC3)CC2)C1 [Example 70, (2S,3S)-N-((S)-1-(4-((4-((1R,4S)-4-(((1R,2S,5R)-5-(isopropyl(methyl)amino)-2-((S)-2-oxo-3-((6-(trifluoromethyl)quinazolin-4-yl)amino)pyrrolidin-1-yl)cyclohexyl)carbamoyl)cyclohexyl)piperazin-1-yl)sulfonyl)piperidin-1-yl)-1-oxopropan-2-yl)-1-methyl-5-oxo-2-(pyridin-3-yl)pyrrolidine-3-carboxamide]	0.1	–	30.51	–
CC(C)N(C)[C@@H]1CC[C@H](N2CC[C@H](Nc3ncnc4ccc(C(F)(F)F)cc34)C2=O)[C@H](NC(=O)C2CCN(C3CCN(C(=O)CCCCCCCNC(=O)[C@@H]4CC(=O)N(C)[C@H]4c4cccnc4)CC3)CC2)C1 [Example 154, N-((1R,2S,5R)-5-(Isopropyl(methyl)amino)-2-((S)-2-oxo-3-((6-(trifluoromethyl)quinazolin-4-yl)amino)pyrrolidin-1-yl)cyclohexyl)-1′-(8-((2R,3R)-1-methyl-5-oxo-2-(pyridin-3-yl)pyrrolidine-3-carboxamido)octanoyl)-[1,4′-bipiperidine]-4-carboxamide]	0.501	–	–	EC50 ([3]; read-out: ADCC Reporter Assay pEC50 (converted)): 2.51 nM
CC(C)N(CCOCCOCCC(=O)N[C@H]1CC[C@@H](C(=O)N[C@@H]2C[C@H](N(C)C(C)C)CC[C@@H]2N2CC[C@H](Nc3ncnc4ccc(C(F)(F)F)cc34)C2=O)CC1)C(=O)CCNC(=O)[C@H]1CC(=O)N(C)[C@@H]1c1ccccc1 [Example 178]	0.398	–	–	–
CC(C)N(C)[C@@H]1CC[C@H](N2CC[C@H](Nc3ncnc4ccc(C(F)(F)F)cc34)C2=O)[C@H](NC(=O)[C@H]2CC[C@@H](N3CCN(S(=O)(=O)C4CCN(C(=O)[C@H](C)NC(=O)[C@H]5CC(=O)N(C)[C@@H]5c5cccnc5)CC4)CC3)CC2)C1 [compound 71]	0.794	–	35.25	–
